How the values were obtained:
[1] = system: HBV; assay: Anti-HBV activity in vitro: extracellular HBV DNA by direct qPCR in HepAD38 cells; assay type: cell-based; details: Hepatitis B virus, doxycycline-free medium, 96 hours, read-out: HBV inh EC50
Excerpt: HepAD38 cell line (Ladner et al., Antimicrob Agents Chemother, 1997, 41, 1715-20) was used for HBV inhibition assays. HepAD38 is a subclone, derived from hepatoblastoma cell line HepG2 (ATCC® Number: HB-8065™), that expresses HBV genome under the transcriptional control of a tetracycline-responsive promoter in a TET-OFF system: addition of doxycycline, an antibiotic belonging to the class of tetracycline, suppresses HBV replication, while its removal switches on the process allowing HBV viral particles release in the cell supernatant. […]
Anti-HBV activity in vitro HBV inhibition activity in vitro was performed in 96 multiwell plates. […] From the dose-response curves, half maximal effective concentration (EC50) could be calculated (see also below). […]
Plates were then incubated 96 hours at 37° C. and then subjected to cell viability assays and extracellular HBV quantification, in order to evaluate both the cytotoxic potential and the anti-viral activity of compounds. Cytotoxicity was assessed by a commercial fluorescence assay that measures the metabolic activity of cells, directly related to cell viability (Cell Titer Blue, Promega). Anti-HBV activity was evaluated by quantification of extracellular HBV DNA with direct qPCR. […]

[2] = system: HBV; details: Phase 1b clinical studies; cited from earlier work

Structure (SMILES)	EC50 [1] [nM]	reduction in HBV DNA [2]	reduction in serum HBV RNA [2]
Cn1cc2c(c1C(=O)Nc1ccc(F)c(Cl)c1)OC[C@@]1(CCN(C(=O)C(=O)NCC(F)(F)F)C1)NS2(=O)=O [Example E25, (S)—N-(3-chloro-4-fluorophenyl)-7′-methyl-1-(2-oxo-2-((2,2,2-trifluoroethyl)amino)acetyl)-2′H,4′H,7′H-spiro[pyrrolidine-3,3′-pyrrolo[3,4-b][1,4,5]oxathiazepine]-6′-carboxamide 1′,1′-dioxide]	< 500		
C[C@@H](NC(=O)C(=O)N1CCC2(CC1)COc1c(c(Cl)n(C)c1C(=O)Nc1ccc(F)c(C(F)F)c1)S(=O)(=O)N2)C(F)(F)F [Example E35, (R)-8′-chloro-N-(3-(difluoromethyl)-4-fluorophenyl)-7′-methyl-1-(2-oxo-2-((1,1,1-trifluoropropan-2-yl)amino)acetyl)-2′H,4′H,7′H-spiro[piperidine-4,3′-pyrrolo[3,4-b][1,4,5]oxathiazepine]-6′-carboxamide 1′,1′-dioxide]	< 500		
O=C(Nc1cc(F)c(F)c(F)c1)c1ccc(F)c(S(=O)(=O)N2CCC(O)CC2)c1 [NVR3-778]		significant reduction	significant reduction
